Measured values taken from patent US20050101671A1, “Compounds and compositions for delivering active agents” (Emisphere Technologies, Inc., priority 1995, published 2005).

How the values were obtained:
[1] = In vivo delivery of heparin by oral administration in rats, APTT (Table 6); parameters: species or system rat; conditions: heparin 100 mg/kg
Experimental: In a test tube, 900 mg of carrier were dissolved in 3 mL of propylene glycol, and 0.299 g of sodium heparin was dissolved in 3 mL of water. The solutions were mixed by vortex. Sodium hydroxide (10M) was added to the resulting mixture until a solution was obtained. The pH was then adjusted to 7.4±0.5 with concentrated hydrochloric acid, and the final solution was sonicated at 40° C. for 30 minutes.
A group of fasted, conscious rats were administered the dosing compositions by oral gavage. Blood samples were collected by cardiac puncture following the administration of ketamine (44 mg/kg). Heparin activity was determined by utilizing the activated partial thromboplastim time (APTT) according to the method of Henry, J. B., Clinical Diagnosis and Management by Laboratory Methods; Philadelphia. Pa.; W B Saunders (1979).
Heparin (100 mg/kg) was administered by oral gavage to rats, and heparin activity was determined according to the procedure of Example 44.

[2] = Delivery agent enhancement of rhGH bioavailability, subcutaneous administration in rats (Table 2); assay type: in vivo, rat; conditions: no delivery agent (0.0 mg/kg), rhGH alone (Comparative Example 16A)
Experimental: The delivery agents were reconstituted with distilled water and adjusted to pH 7.2-8.0 with either aqueous hydrochloric acid or aqueous sodium hydroxide. A stock solution of rhGH was prepared by mixing rhGH, D-mannitol and glycine and dissolving this mixture in 2% glycerol/water. The stock solution was then added to the delivery agent solution. Several delivery agent to active agent ratios were studied.
Male Sprague-Dawley rats weighing 200-250 g were fasted for 24 hours and administered ketamine (44 mg/kg) and chlorpromazine (1.5 mg/kg) 15 minutes prior to dosing. The rats were administered one of the dosing solutions described above by subcutaneous injection, intranasal instillation, or sublingual instillation. Blood samples were collected serially from the tail artery for serum calcium concentration determination or serum rhGH concentrations. The dose-of rhGH administered in these experiments was 0.
Serum rhGH concentrations were quantified by an rhGH enzyme immunoassay test kit.

[3] = In vivo delivery of rhGH in rats (Table 1), serum rhGH by ELISA; parameters: species or system rat; conditions: oral, no carrier, rhGH 6 mg/kg
Experimental: Dosing compositions were prepared by mixing the modified amino acids and recombinant human growth hormone (rhGH) as listed in Table 1 below in a phosphate buffer solution at a pH of about 7-8.
Rats were administered the dosing composition by sublingual, oral gavage, intraduodenal administration, or colonic administration. Delivery was evaluated by using an ELISA assay for rhGH from Medix Biotech, Inc. For intracolonic administration, a sample was prepared and dosed to fasted rats at 25 mg/kg of carrier in a buffered solution containing propylene glycol (0-50%) and 1 mg/kg rhGH.

O=C(O)CCCCCCCNC(=O)/C=C/c1ccccc1F [Compound XII]
Mean Peak APTT ([1]; carrier 300 mg/kg): 49.53 ± 17.1 s

Heparin [reference compound]
Mean Peak APTT ([1]; no carrier): 20.7 ± 0.17 s

rhGH: recombinant human growth hormone, active agent dosed alone as comparative example
Peak Serum [rhGH] [2]: 4 ± 2 ng/mL
Mean Peak Serum Levels of rhGH [3]: <10 ± 10 ng/mL
